Test results: patent publication US7842488B2, “Polynucleotides encoding a human 3-phosphoinositide- dependent protein kinase” (Medical Research Council, priority 1997, dated 2010)
Entries after “also recorded” stand apart in the source; their conditions may differ.

Legend:
[1] = system: PDK1; assay: PDK1 assay: activation of GST-PKBα by purified PDK1 with phospholipid vesicles; format: biochemical, rabbit; settings: lipid 10 μM in vesicles of 100 μM PtdCho, 100 μM PtdSer; 30 min at 30° C.
How it was run: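 Two-stage assay: GST-PKBα incubated with PDK1, MgATP and phospholipid vesicles to allow activation. Reactions run 10 min at 30 °C, stopped on p81 phosphocellulose paper and washed in phosphoric acid. Basal GST-PKBα activity measured without PDK1.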

[2] = target: T1, GST-PDK1 (Homo sapiens, UniProt O15530); assay: GST-PDK1 assay: activation and phosphorylation of GST-PKBα; format: biochemical; settings: lipid 10 μM in PtdCho/PtdSer vesicles
T1 construct: Residues 52-556 of PDK1 were expressed in human embryonic kidney 293 cells; made in house; host or cells: human embryonic kidney 293 cells (pEBG2T)
T1 sequence (O15530 52-556): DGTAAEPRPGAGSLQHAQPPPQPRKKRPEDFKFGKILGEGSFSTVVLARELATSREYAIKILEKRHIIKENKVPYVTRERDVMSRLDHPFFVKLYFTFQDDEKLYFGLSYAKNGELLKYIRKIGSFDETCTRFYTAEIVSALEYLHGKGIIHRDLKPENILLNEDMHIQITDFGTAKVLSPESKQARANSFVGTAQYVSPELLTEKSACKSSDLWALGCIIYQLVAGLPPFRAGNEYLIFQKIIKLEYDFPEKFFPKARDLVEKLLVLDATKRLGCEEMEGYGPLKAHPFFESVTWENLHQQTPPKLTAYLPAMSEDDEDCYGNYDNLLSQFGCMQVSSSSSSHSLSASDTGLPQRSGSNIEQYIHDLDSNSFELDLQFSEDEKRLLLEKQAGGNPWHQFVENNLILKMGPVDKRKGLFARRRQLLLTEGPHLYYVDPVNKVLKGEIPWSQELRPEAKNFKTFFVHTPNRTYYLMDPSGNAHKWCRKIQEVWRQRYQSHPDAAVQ
Procedure: (§1) FIG. 12. […] In panels A and C, the assays were terminated by making the incubations 1% (by vol) in TRITON X-100™ (see Ref 21), and the increase in specific activity of GST-PKBα was determined. In panels B and D, the reactions were terminated by making the solutions 1% in SDS, the samples were subjected to SDS/polyacrylamide gel electrophoresis, and the phosphorylation was assessed by autoradiography of the Coomassie blue-stained band corresponding to GST-PKBα.
(§2) One unit of PDK1 activity was defined as that amount required to increase the basal activity of GST-PKBα by 1 unit of activity in one min.

[3] = target: T2, GST-DSTPK61 (Drosophila melanogaster, UniProt Q9W0V1); assay: GST-DSTPK61 assay: activation and phosphorylation of GST-PKBα; format: biochemical; settings: lipid 10 μM in PtdCho/PtdSer vesicles
T2 construct: residues 1-752 of DSTPK61 in E. coli as fusion proteins; made in house; host or cells: E. coli (pGEX-3X)
Procedure: as §1, §2

[4] = target: T3, PDK1 (Homo sapiens, UniProt O15530); assay: Direct binding of PtdIns(3,4,5)P3 to PDK1
T3 sequence (O15530 1-556): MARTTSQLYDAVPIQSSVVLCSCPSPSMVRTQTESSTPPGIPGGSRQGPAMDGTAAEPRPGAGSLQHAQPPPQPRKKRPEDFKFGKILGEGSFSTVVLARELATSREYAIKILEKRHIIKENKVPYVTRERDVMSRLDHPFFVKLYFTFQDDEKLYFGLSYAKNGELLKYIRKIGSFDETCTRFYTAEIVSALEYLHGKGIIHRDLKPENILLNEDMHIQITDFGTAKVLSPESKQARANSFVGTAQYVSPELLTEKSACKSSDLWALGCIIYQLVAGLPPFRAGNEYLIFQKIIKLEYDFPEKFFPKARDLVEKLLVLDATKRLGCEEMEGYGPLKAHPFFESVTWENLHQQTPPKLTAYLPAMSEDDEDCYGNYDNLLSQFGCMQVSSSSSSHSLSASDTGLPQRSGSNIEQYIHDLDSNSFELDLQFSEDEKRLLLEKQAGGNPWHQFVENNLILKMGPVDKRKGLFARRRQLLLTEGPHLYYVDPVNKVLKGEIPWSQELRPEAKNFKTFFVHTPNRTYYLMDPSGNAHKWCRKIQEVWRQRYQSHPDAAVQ

[5] = system: GST-PKBα; assay: Activation of GST-PKBα after stimulation of transfected 293 cells; format: cell-based, human; settings: versus unstimulated 293 cells
Excerpt: Expression of GST-PKBα in 293 cells. The DNA sequence encoding PKBα was subcloned into the eukaryotic expression vector PEBG2T that has been used to overexpress GST-fusion proteins in eukaryotic cells under an EF1α promoter. A PCR reaction was set up to generate a full length cDNA encoding the PKBα gene with a BamH1site at the 5′ end of the cDNA that is in frame with the GST sequence of the PEBG2T vector and the ATG initiation codon of PKBα, and a KpnI site at the 3′ end, using the human PCMV5-HA-PKBα plasmid. The DNA sequence of the BamH1/KpnI cDNA fragment was checked and then subcloned into the unique BamH1/KpnI restriction sites on the pEBG 2T expression vector. In order to prepare GST-PKBα, 40, 10 cm diameter dishes of human embryonic kidney 293 cells were cultured and each dish transfected with 20 μg of GST PKBα expression construct using the modified calcium phosphate method described previously for overexpression of haemaglutinin tagged PKBα in 293 cells. […]

[6] = system: HA-PKBα; assay: HA-PKBα activity in transfected 293 cells; format: cell-based, human
Procedure: FIG. 14. PKBα is activated by cotransfection with PDK1 in 293 cells. (A) 293 cells were transiently transfected with DNA constructs expressing either HA-PKBα or both HA-PKBα and Myc-PDK1. The cells were then stimulated for 10 min with or without 50 ng/ml IGF1, the HA-PKBα immunoprecipitated from the lysates and assayed. The results are expressed relative to the specific activity of wild type HA-PKBα in unstimulated 293 cells ([…]). No PKBα activity was detected in mock transfections in which the cells were transfected with PCMV5 vector alone (data not shown). (B) 6 μg of protein from each lysate was electrophoresed on a 10% SDS/polyacrylamide gel and immunoblotted using either a monoclonal HA-antibody to detect HA-PKBα or a monoclonal Myc-antibody to detect Myc-PDK1. The molecular mass markers are glycogen phosphorylase (97 kDa), bovine serum albumin (67 kDa) and ovalbumin (43 kDa).
Transfection of 293 cells with HA-tagged PBKα and Myc-PDK1. Human embryonic kidney 293 cells were cultured on 10 cm diameter dishes and transfected with 2 μg/ml pCMV5 DNA constructs encoding for HA-PKBα or HA-PKBα plus Myc-PDK1 [20]. After 24 h the cells were deprived of serum for a further 16 h and then stimulated for 10 min with either […] IGF1 or Buffer. The cells were lysed in 1.0 ml of ice-cold Buffer A, the lysate centrifuged at 4° C. for 10 min at 13,000×g and HA-PKBα immunoprecipitated from aliquots of the supernatant (10 μg protein) and assayed for PKBα with the peptide RPRAATF (SEQ ID NO: 9) as described previously.

[7] = system: HA-PKBα; assay: 32P-labelling of transfected 293 cells: phosphorylation sites of HA-PKBα; format: cell-based, human; settings: 293 cells cotransfected with PDK1
Procedure: FIG. 15. Overexpression of PDK1 in cells induces phosphorylation of PKBα at Thr308. 293 cells transiently transfected with either wild type HA-PKBα (panels A and C) or HA-PKBα and Myc-PDK1 (panels B and D) were incubated with ^32P-orthophosphate, then treated for 10 min without (panels A and B) or with (panels C and D) 50 ng/ml IGF1. The ^32P-labelled HA-PKBα was immunoprecipitated from the lysates, treated with 4-vinylpyridine, and electrophoresed on 1 10% polyacrylamide gel. The HA-PKBα was excised from the gel, digested with trypsin and chromatographed on a C18 column (see legend to FIG. 13) to resolve the four major phosphopeptides which are phosphorylated at Ser-124, Ser473, Thr308 and Thr450 respectively. The identity of each phosphopeptide was established by phospho-amino acid analysis and solid phase sequencing. Similar results were obtained in two separate experiments for (panels A and C), and in three separate experiments (panels B and D).
(§3) ^32P-labelling of 293 cells transfected with HA-PKBα or Myc-PDK1. This was carried out essentially as described previously. Briefly, 293 cells were transfected with HA-PKBα, or with HA-PKBα plus Myc-PDK1, washed with phosphate free DMEM, incubated for 4 h with [^32P]-orthophosphate (1 mCi/ml), then stimulated with IGF1 (50 ng/ml) for 5 min. The cells were lysed, and the HA-PKBα immunoprecipitated (using 10 μg of 12CAS antibody per 10 cm dish of cells) or the Myc-PDK1 immunoprecipitated (using 10 μg of 9E10 antibody per 10 cm dish of cells). The immunoprecipitated protein was alkylated with 4-vinylpyridine, subjected to SDS/polyacrylamide gel electrophoresis, digested with trypsin and analysed by chromatography on a C18 column (Alessi et al (1996) EMBO J. 15, 6541-6551).

[8] = system: PDK1; assay: Endogenous PDK1 activity in lysates of IGF1-stimulated 293 cells; format: cell-based, human; settings: up to 10 min
Procedure: PDK1 is not activated or phosphorylated by IGF1. 293 cells were serum starved for 16 h, stimulated with IGF1 lysed and the endogenous PDK1 activity present in the cell lysates was determined after chromatography on heparin-Sepharose (see Methods).

[9] = system: Myc-PDK1; assay: 32P-labelling of 293 cells: phosphorylation of Myc-PDK1; format: cell-based, human; settings: 5 min
Procedure: as §3
In order to see if IGF1 stimulation was inducing the phosphorylation of PDK1, 293 cells were transfected with Myc-PDK1 (encoding residues 52 to 556), incubated with ^32P-phosphate, stimulated with buffer or IGF1 for 5 min and ^32P-labelled Myc-PDK1 was immunoprecipitated from the lysates. After digestion with trypsin, the resulting peptides were analysed by C18 chromatography. […] One of the in vivo phosphorylation sites on PDK1 was identified as Ser-241 which lies in the equivalent position to Thr308 of PKB in the kinase domain.

T2 sequence (Q9W0V1 85-836 Q200H/Q201E/Q317A/G443R): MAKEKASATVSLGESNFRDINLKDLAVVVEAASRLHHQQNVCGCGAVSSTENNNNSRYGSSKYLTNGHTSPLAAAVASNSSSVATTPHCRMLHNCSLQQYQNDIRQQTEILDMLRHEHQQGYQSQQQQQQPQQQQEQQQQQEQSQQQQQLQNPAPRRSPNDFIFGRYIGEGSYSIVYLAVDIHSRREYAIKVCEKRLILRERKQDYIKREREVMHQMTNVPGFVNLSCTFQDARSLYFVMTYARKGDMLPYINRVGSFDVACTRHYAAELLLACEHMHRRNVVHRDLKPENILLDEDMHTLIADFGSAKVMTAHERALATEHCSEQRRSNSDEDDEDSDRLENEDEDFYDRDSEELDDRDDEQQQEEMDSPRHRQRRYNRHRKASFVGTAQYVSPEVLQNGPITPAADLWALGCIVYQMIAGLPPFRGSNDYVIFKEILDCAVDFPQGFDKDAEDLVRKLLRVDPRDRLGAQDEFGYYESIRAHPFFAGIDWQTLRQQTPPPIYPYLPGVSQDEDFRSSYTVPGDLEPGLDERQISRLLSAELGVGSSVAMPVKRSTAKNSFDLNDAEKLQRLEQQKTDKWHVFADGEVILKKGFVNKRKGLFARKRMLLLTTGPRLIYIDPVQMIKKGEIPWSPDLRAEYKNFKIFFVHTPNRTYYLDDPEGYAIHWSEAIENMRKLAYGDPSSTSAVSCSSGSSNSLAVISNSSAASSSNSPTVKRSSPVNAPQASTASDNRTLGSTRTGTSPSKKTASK

Substance | activation of PDK1 (in words) [1] | activation and phosphorylation of GST-PKBα by GST-PDK1 (in words) [2] | activation and phosphorylation of GST-PKBα by GST-DSTPK61 (in words) [3] | binding to PDK1 (in words) [4] | fold activation of GST-PKBα after stimulation of 293 cells [5] | fold increase of HA-PKBα activity after stimulation ([6]; 293 cells transfected with HA-PKBα alone, 10 min) | fold increase of HA-PKBα activity after stimulation ([6]; 293 cells transfected with both HA-PKBα and Myc-PDK1) | further fold increase of Thr308 phosphorylation of HA-PKBα [7] | endogenous PDK1 activity after stimulation of 293 cells [8] | phosphorylation of Myc-PDK1 tryptic peptides after stimulation of 293 cells [9]
Phosphatidylinositol 3,4,5-tris phosphate [PtdIns(3,4,5)P3] | only active in the presence of low micromolar concentrations | activated and phosphorylated GST-PKBα | activated and phosphorylated GST-PKBα | bind PtdIns(3,4,5)P3 directly | – | – | – | – | – | –
IGF1: growth factor IGF1 used to stimulate 293 cells | – | – | – | – | 45 fold | 40 fold | 70 fold | 4 fold | did not result in any activation or inhibition; also recorded: did not affect | does not alter the phosphorylation; also recorded: did not affect
